The values that follow come from US7405235B2, “Transcription factor modulating compounds and methods of use thereof” (Paratek Pharmaceuticals, Inc., priority 2001, dated 2008).

This experiment addresses MarA (Escherichia coli, UniProt P0ACH5). Kind of experiment: MarA-activated selective marker (ccdB) cell survival assay, Example 2. The arrangement: key: * indicates good inhibition of MarA; ** indicates very good inhibition of MarA. It is filed as cell-based. To be noted: inhibition of MarA: cell survival under conditions of MarA expression (ccdB under MarA-activated promoter). From the text:
In the absence of Mar A, the expression of the selective marker would be silent. For example, in the case of regulation of the cytotoxic gene ccdB, the gene would be silent and the cells would survive. Synthesis of MarA from an inducible plasmid in a suitable host would result in the activation of the MarA responsive activatable promoter and expression of the selective marker. In the case of ccdB, the gene would be expressed and result in cell death. Compounds that inhibit MarA would be identified as those that permit cell survival under conditions of MarA expression.
In the absence of MarA, the expression of the selective marker is silent and cells survive. Synthesis of MarA from an inducible plasmid in a bacterial or yeast cell leads to the activation of the inaA promoter, expression of ccdB, and subsequently results in cell death. Compounds that inhibit MarA are those that permit cell survival under conditions of MarA expression. In Table 4, * indicates good inhibition of MarA and ** indicates very good inhibition of MarA.

The structures appear in SMILES notation.

Chain of MarA (P0ACH5 whole entry, looked up): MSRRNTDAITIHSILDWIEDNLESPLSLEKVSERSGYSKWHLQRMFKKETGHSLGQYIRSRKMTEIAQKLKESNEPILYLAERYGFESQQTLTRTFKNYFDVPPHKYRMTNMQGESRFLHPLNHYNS

For `O=c1/c(=C\c2c[nH]nc2-c2ccccc2)sc2nc3ccccc3n12` [M, 2-(3-Phenyl-1H-pyrazol-4-ylmethylene)-benzo[4,5]imidazo[2,1-b]thiazol-3-one], the MarA inhibition class entry is reported as “**”.

Take `CCOC(=O)C1=C(C)N=c2sc(=Cc3ccc(-c4cccc(C(=O)O)c4)o3)c(=O)n2C1c1c(OC)ccc2ccccc12` (stereo not shown) [N, 2-[5-(3-Carboxy-phenyl)-furan-2-ylmethylene]-5-(2-methoxy-naphthalen-1-yl)-7-methyl-3-oxo-2,3-dihydro-5H-thiazolo[3,2-a]pyrimidine-6-carboxylicacid ethyl ester]: the MarA inhibition class result is listed as “**”.

For `CCOC(=O)C1=C(C)N=c2sc(=Cc3ccc(-c4ccc([N+](=O)[O-])cc4C)o3)c(=O)n2C1c1ccc2c(c1)OCO2` (stereo not shown) [P, 5-Benzo[1,3]dioxol-5-yl-7-methyl-2-[5-(2-methyl-4-nitro-phenyl)-furan-2-ylmethylene]-3-oxo-2,3-dihydro-5H-thiazolo[3,2-a]pyrimidine-6-carboxylicacid ethyl ester], the MarA inhibition class entry was “*”.

Take `CCOC(=O)C1=C(C)N=c2s/c(=C/c3ccc(-c4cccc(C(F)(F)F)c4)o3)c(=O)n2C1c1ccccc1` (stereo not shown) [U, 7-Methyl-3-oxo-5-phenyl-2-[5-(3-trifluoromethyl-phenyl)-furan-2-ylmethylene]-2,3-dihydro-5H-thiazolo[3,2-a]pyrimidine-6-carboxylicacid ethyl ester]: the MarA inhibition class entry was “**”.

With `CCOC(=O)C1=C(C)N=c2sc(=Cc3ccc(-c4cccc(C(=O)O)c4)o3)c(=O)n2C1c1ccc(N(C)C)cc1` (stereo not shown) [W, 2-[5-(3-Carboxy-phenyl)-furan-2-ylmethylene]-5-(4-dimethylamino-phenyl)-7-methyl-3-oxo-2,3-dihydro-5H-thiazolo[3,2-a]pyrimidine-6-carboxylicacid ethyl ester], the MarA inhibition class entry is “**”.

With `CCOC(=O)C1=C(C)N=c2sc(=Cc3ccc(-c4ccc(C)c([N+](=O)[O-])c4)o3)c(=O)n2C1c1ccc(N(C)C)cc1` (stereo not shown) [X, 5-(4-Dimethylamino-phenyl)-7-methyl-2-[5-(4-methyl-3-nitro-phenyl)-furan-2-ylmethylene]-3-oxo-2,3-dihydro-5H-thiazolo[3,2-a]pyrimidine-6-carboxylicacid ethyl ester], the MarA inhibition class entry was “**”.

As for `O=C1C=Cc2ccccc2/C1=N/Oc1ccc2noc3c2c1C(=O)c1ccccc1-3` [Z, [1,2]Naphthoquinone 1-[O-(6-oxo-6H-anthra[1,9-cd]isoxazol-5-yl)-oxime]], the MarA inhibition class result is on record as “*”.
